Measurements taken from patent US20190047966A1, “NOVEL COMPOUND AND PHARMACOLOGICALLY ACCEPTABLE SALT THEREOF” (MEIJI SEIKA PHARMA CO., LTD., priority 2016, published 2019).
Counter-ions that a name gives are not always drawn.

Key:
[1] = biological target: human histamine H1 receptor (Homo sapiens, UniProt P35367); assay: Evaluation of Human H1 Receptor Affinity ([3H]pyrilamine binding); parameters: purchased PerkinElmer Inc; host or cells: CHO-K1; conditions: inhibition constant Ki, CHO-K1 membrane preparation
Method: Test Example 1: Evaluation of Human H1 Receptor Affinity
Membrane preparation from recombinant CHO-K1 cell expressing the human histamine H1 receptor (PerkinElmer Inc.), radiolabeled ligand 1.2 nM [^3H]pyrilamine (PerkinElmer Inc.), and test compounds dissolved in DMSO were reacted at 25° C. for 3 hours in a buffering solution containing 50 mM tris-hydrochloric acid, pH 7.4, and 5 mM magnesium chloride on a 96 well plate, followed by filtration using a GF/B filter (PerkinElmer Inc.) pretreated with 0.3% polyethylenimine. The residue was washed four times with a buffering solution of 50 mM tris-hydrochloric acid, pH 7.4. Thereafter, a scintillation cocktail (MicroScint 20: PerkinElmer Inc.) was added to the GF/B filter, and the radioactivity of each well was measured using a liquid scintillation counter for 96-well (TopCount: PerkinElmer Inc.). The non-specific binding was evaluated in the presence of 1.0 μM pyrilamine. The inhibition constant Ki was calculated from the 50% inhibitory concentration (IC50 value) obtained in each test and the Kd value (1.1 nM) unique to this assay system, according to the Cheng-Prusoff equation.

[2] = biological target: T1, human histamine H4 receptor (Homo sapiens, UniProt Q9H3N8); assay: Evaluation of Human H4 Receptor Affinity ([3H]histamine binding); conditions: inhibition constant Ki, CHO-K1 membrane preparation, read-out: Evaluation of H4 Receptor Affinity
T1 construct: purchased PerkinElmer Inc; host or cells: CHO-K1
Method: Test Example 2: Evaluation of Human H4 Receptor Affinity
Membrane preparation from recombinant CHO-K1 cell expressing the human histamine H4 receptor (PerkinElmer Inc.), radiolabeled ligand 8.2 nM [^3H]histamine (PerkinElmer Inc.), and compounds dissolved in DMSO were reacted at 25° C. for 90 minutes in a buffering solution containing 50 mM tris-hydrochloric acid, pH 7.4, and 1.25 mM EDTA on a 96 well plate, followed by filtration using a GF/B filter (PerkinElmer Inc.) pretreated with 0.3% polyethylenimine. The residue was washed four times with a buffering solution of 50 mM tris-hydrochloric acid, pH 7.4. Thereafter, a scintillation cocktail (MicroScint 20: PerkinElmer Inc.) was added to the GF/B filter, and the radioactivity of each well was measured using a liquid scintillation counter for 96-well (TopCount: PerkinElmer Inc.). The non-specific binding was evaluated in the presence of 1.0 μM histamine. The inhibition constant Ki was calculated from the 50% inhibitory concentration (IC50 value) obtained in each test and the Kd value (5.7 nM) unique to this assay system, according to the Cheng-Prusoff equation.

T1 sequence (Q9H3N8 whole entry): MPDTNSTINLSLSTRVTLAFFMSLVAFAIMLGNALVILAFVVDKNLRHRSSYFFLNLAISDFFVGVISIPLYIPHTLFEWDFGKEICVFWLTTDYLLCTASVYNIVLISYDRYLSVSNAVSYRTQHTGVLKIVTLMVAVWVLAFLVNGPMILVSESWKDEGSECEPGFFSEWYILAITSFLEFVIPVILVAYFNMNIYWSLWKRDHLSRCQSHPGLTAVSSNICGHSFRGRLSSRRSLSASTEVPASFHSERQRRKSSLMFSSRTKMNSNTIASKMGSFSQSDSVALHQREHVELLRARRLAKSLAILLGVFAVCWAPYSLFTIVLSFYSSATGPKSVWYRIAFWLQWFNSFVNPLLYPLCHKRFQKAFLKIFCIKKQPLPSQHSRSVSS
Chain of human histamine H1 receptor (P35367 whole entry): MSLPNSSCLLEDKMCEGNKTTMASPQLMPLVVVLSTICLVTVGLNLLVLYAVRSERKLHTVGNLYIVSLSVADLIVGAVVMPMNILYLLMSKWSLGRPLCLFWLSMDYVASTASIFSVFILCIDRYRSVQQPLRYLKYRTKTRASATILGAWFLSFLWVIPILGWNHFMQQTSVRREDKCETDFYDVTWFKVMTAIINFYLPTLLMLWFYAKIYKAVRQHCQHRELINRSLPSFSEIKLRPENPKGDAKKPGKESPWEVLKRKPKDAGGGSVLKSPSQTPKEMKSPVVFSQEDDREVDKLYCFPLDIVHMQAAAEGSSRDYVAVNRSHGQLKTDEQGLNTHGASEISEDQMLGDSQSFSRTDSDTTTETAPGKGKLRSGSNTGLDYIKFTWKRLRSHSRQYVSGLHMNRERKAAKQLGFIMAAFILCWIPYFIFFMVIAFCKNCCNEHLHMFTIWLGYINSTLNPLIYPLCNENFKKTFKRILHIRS

SMILES	Ki [1] [nM]	Ki [2] [nM]
COC(=O)c1ccc(COCCN2CCN(c3nc(N)nc4c3CCc3cc(OCc5ccc(Cl)cc5)ccc3-4)CC2)cc1 [128(a), methyl 4-((2-(4-(2-amino-8-((4-chlorobenzyl)oxy)-5,6-dihydrobenzo[h]quinazolin-4-yl)piperazin-1-yl)ethoxy)methyl)benzoate]	< 100	100 to 500
Nc1nc2c(c(N3CCN(CCOCc4ccc(C(=O)O)cc4)CC3)n1)CCc1cc(OCc3ccc(Cl)cc3)ccc1-2 [128(b), 4-((2-(4-(2-amino-8-((4-chlorobenzyl)oxy)-5,6-dihydrobenzo[h]quinazolin-4-yl)piperazin-1-yl)ethoxy)methyl)benzoic acid]	< 100	< 100
COC(=O)c1ccc(F)c(COCCN2CCN(c3nc(N)nc4c3CCc3cc(OCc5ccc(Cl)cc5)ccc3-4)CC2)c1 [129(a), methyl 3-((2-(4-(2-amino-8-((4-chlorobenzyl)oxy)-5,6-dihydrobenzo[h]quinazolin-4-yl)piperazin-1-yl)ethoxy)methyl)-4-fluorobenzoate]	< 100	100 to 500
COC(=O)c1cccc(OCCCN2CCN(c3nc(N)nc4c3CCc3cc(OCc5ccc(Cl)cc5)ccc3-4)CC2)c1 [131(a), methyl 3-(3-(4-(2-amino-8-((4-chlorobenzyl)oxy)-5,6-dihydrobenzo[h]quinazolin-4-yl)piperazin-1-yl)propoxy)benzoate]	< 100	100 to 500
Nc1nc2c(c(N3CCN(CCCOc4cccc(C(=O)O)c4)CC3)n1)CCc1cc(OCc3ccc(Cl)cc3)ccc1-2 [131(b), 3-(3-(4-(2-amino-8-((4-chlorobenzyl)oxy)-5,6-dihydrobenzo[h]quinazolin-4-yl)piperazin-1-yl)propoxy)benzoic acid]	< 100	100 to 500
CCOC(=O)c1csc(COCCN2CCN(c3nc(N)nc4c3CCc3cc(OCc5ccc(Cl)cc5)ccc3-4)CC2)n1 [135(a), ethyl 2-((2-(4-(2-amino-8-((4-chlorobenzyl)oxy)-5,6-dihydrobenzo[h]quinazolin-4-yl)piperazin-1-yl)ethoxy)methyl)thiazole-4-carboxylate]	< 100	< 100
Nc1nc2c(c(N3CCN(CCOCc4nc(C(=O)O)cs4)CC3)n1)CCc1cc(OCc3ccc(Cl)cc3)ccc1-2 [135(b), 2-((2-(4-(2-amino-8-((4-chlorobenzyl)oxy)-5,6-dihydrobenzo[h]quinazolin-4-yl)piperazin-1-yl)ethoxy)methyl)thiazole-4-carboxylic acid dihydrochloride]	< 100	< 100
CCOC(=O)C1(C#N)CCC(COCCN2CCN(c3nc(N)nc4c3CCc3cc(OCc5ccc(Cl)cc5)ccc3-4)CC2)CC1 (stereo not drawn) [159(a), ethyl cis- or trans-4-((2-(4-(2-amino-8-((4-chlorobenzyl)oxy)-5,6-dihydrobenzo[h]quinazolin-4-yl)piperazin-1-yl)ethoxy)methyl)-1-cyanocyclohexane-1-carboxylate]	< 100	100 to 500
N#CC1(C(=O)O)CCC(COCCN2CCN(c3nc(N)nc4c3CCc3cc(OCc5ccc(Cl)cc5)ccc3-4)CC2)CC1 (stereo not drawn) [159(b), cis- or trans-4-((2-(4-(2-amino-8-((4-chlorobenzyl)oxy)-5,6-dihydrobenzo[h]quinazolin-4-yl)piperazin-1-yl)ethoxy)methyl)-1-cyanocyclohexane-1-carboxylic acid hydrochloride]	< 100	< 100
CCOC(=O)C1(C#N)CCC(COCCN2CCN(c3nc(N)nc4c3CCc3cc(OCc5ccc(Cl)cc5)ccc3-4)CC2)CC1 (stereo not drawn) [160(a), ethyl trans- or cis-4-((2-(4-(2-amino-8-((4-chlorobenzyl)oxy)-5,6-dihydrobenzo[h]quinazolin-4-yl)piperazin-1-yl)ethoxy)methyl)-1-cyanocyclohexane-1-carboxylate]	< 100	100 to 500
N#CC1(C(=O)O)CCC(COCCN2CCN(c3nc(N)nc4c3CCc3cc(OCc5ccc(Cl)cc5)ccc3-4)CC2)CC1 (stereo not drawn) [160(b), trans- or cis-4-((2-(4-(2-amino-8-((4-chlorobenzyl)oxy)-5,6-dihydrobenzo[h]quinazolin-4-yl)piperazin-1-yl)ethoxy)methyl)-1-cyanocyclohexane-1-carboxylic acid]	< 100	< 100
CCOC(=O)C1CCC(O)(COCCN2CCN(c3nc(N)nc4c3CCc3cc(OCc5ccc(Cl)cc5)ccc3-4)CC2)CC1 (stereo not drawn) [166(a), ethyl cis- or trans-4-((2-(4-(2-amino-8-((4-chlorobenzyl)oxy)-5,6-dihydrobenzo[h]quinazolin-4-yl)piperazin-1-yl)ethoxy)methyl)-4-hydroxycyclohexane-1-carboxylate]	< 100	100 to 500
Nc1nc2c(c(N3CCN(CCOCC4(O)CCC(C(=O)O)CC4)CC3)n1)CCc1cc(OCc3ccc(Cl)cc3)ccc1-2 (stereo not drawn) [166(b), cis- or trans-4-((2-(4-(2-amino-8-((4-chlorobenzyl)oxy)-5,6-dihydrobenzo[h]quinazolin-4-yl)piperazin-1-yl)ethoxy)methyl)-4-hydroxycyclohexane-1-carboxylic acid]	< 100	100 to 500
Nc1nc2c(c(N3CCNCC3)n1)CCc1cc(OCc3ccc(Cl)cc3)ccc1-2 [Example 4, 8-((4-chlorobenzyl)oxy)-4-(piperazin-1-yl)-5,6-dihydrobenzo[h]quinazolin-2-amine]	< 100	< 100
Nc1nc2c(c(N3CCNCC3)n1)CCc1cc(OCc3ccccc3)ccc1-2 [Example 5, 8-(benzyloxy)-4-(piperazin-1-yl)-5,6-dihydrobenzo[h]quinazolin-2-amine]	< 100	< 100
Nc1nc2c(c(N3CCNCC3)n1)CCc1cc(OCc3ccc(OC(F)(F)F)cc3)ccc1-2 [Example 6, 4-(piperazin-1-yl)-8-((4-(trifluoromethoxy)benzyl)oxy)-5,6-dihydrobenzo[h]quinazolin-2-amine]	< 100	< 100
Nc1nc2c(c(N3CCN(CCO)CC3)n1)CCc1cc(OCc3ccccc3)ccc1-2 [Example 7, 2-(4-(2-amino-8-(benzyloxy)-5,6-dihydrobenzo[h]quinazolin-4-yl)piperazin-1-yl)ethan-1-ol]	< 100	100 to 500
Nc1nc2c(c(N3CCN(CCOCCO)CC3)n1)CCc1cc(OCc3ccc(Cl)cc3)ccc1-2 [Example 8, 2-(2-(4-(2-amino-8-((4-chlorobenzyl)oxy)-5,6-dihydrobenzo[h]quinazolin-4-yl)piperazin-1-yl)ethoxy)ethan-1-ol]	< 100	< 100
Nc1nc2c(c(N3CCN(CCOCCOCCO)CC3)n1)CCc1cc(OCc3ccc(Cl)cc3)ccc1-2 [Example 9, 2-(2-(2-(4-(2-amino-8-((4-chlorobenzyl)oxy)-5,6-dihydrobenzo[h]quinazolin-4-yl)piperazin-1-yl)ethoxy)ethoxy)ethan-1-ol]	< 100	< 100
N#CCOCCOCCN1CCN(c2nc(N)nc3c2CCc2cc(OCc4ccc(Cl)cc4)ccc2-3)CC1 [Example 10, 2-(2-(2-(4-(2-amino-8-((4-chlorobenzyl)oxy)-5,6-dihydrobenzo[h]quinazolin-4-yl)piperazin-1-yl)ethoxy)ethoxy)acetonitrile]	< 100	< 100
Nc1nc2c(c(N3CCN(CCO[C@H]4CC[C@@H](C(=O)O)CC4)CC3)n1)CCc1cc(OCc3ccc(Cl)cc3)ccc1-2 [Example 24, cis-4-(2-(4-(2-amino-8-((4-chlorobenzyl)oxy)-5,6-dihydrobenzo[h]quinazolin-4-yl)piperazin-1-yl)ethoxy)cyclohexane-1-carboxylic acid]	< 100	100 to 500
Nc1nc2c(c(N3CCN(CCOC[C@H]4CC[C@@H](C(=O)O)CC4)CC3)n1)CCc1cc(OCc3ccc(OC(F)(F)F)cc3)ccc1-2 [Example 27, cis-4-((2-(4-(2-amino-8-((4-(trifluoromethoxy)benzyl)oxy)-5,6-dihydrobenzo[h]quinazolin-4-yl)piperazin-1-yl)ethoxy)methyl)cyclohexane-1-carboxylic acid dihydrochloride]	< 100	< 100
Nc1nc2c(c(N3CCN(CCO[C@H]4CC[C@H](C(=O)O)CC4)CC3)n1)CCc1cc(OCc3ccc(Cl)cc3)ccc1-2 [Example 28, trans-4-(2-(4-(2-amino-8-((4-chlorobenzyl)oxy)-5,6-dihydrobenzo[h]quinazolin-4-yl)piperazin-1-yl)ethoxy)cyclohexane-1-carboxylic acid]	< 100	< 100
